The values below come from ChEMBL document CHEMBL1156361, “Structure-activity relationship of in vitro antiviral and cytotoxic activity of semisynthetic analogues of scopadulane diterpenes” (J Nat Prod, 2001).

In brackets after ≈: the same amount, converted by molar mass. Activity calls are given as the source filed them. The calls are words filed in the database; no cut-off is given here.

One data set relates to Vero. The data set is described as follows: Cytotoxicity against african green monkey Vero cells by end-point titration technique. The format is cell-based. The settings on record: chlorocebus sabaeus.
Data set [1] relates to Human alphaherpesvirus 2. The data set is described as follows: Antiviral activity against Herpes simplex virus 2 infected in african green monkey Vero cells assessed as ratio of the viral titers in absence to presence of drug after 48 hrs by end-point titration technique. In kind it is functional.
Data set [2] concerns Human alphaherpesvirus 2. Kind of data set: Antiviral activity against Herpes simplex virus 2 infected in african green monkey Vero cells assessed as maximal nontoxic dose that showed the highest viral reduction factor after 48 hrs by end-point titration technique. The format is functional.
The nature of data set [3]: Cytotoxicity against african green monkey Vero cells by MTT assay. The settings on record: chlorocebus sabaeus. In kind it is cell-based. In general terms: Tetrazolium dyes change colour on reduction, which living cells bring about.
Data set [4] has as its system Human alphaherpesvirus 2. The data set is described as follows: Antiviral activity against Herpes simplex virus 2 infected in african green monkey Vero cells assessed inhibition of virus-induced effect after 48 hrs by MTT assay. The format is functional, organism-based. The settings on record: Human alphaherpesvirus 2, Vero.
Data set [5] is described as follows: Therapeutic index, ratio of CC50 for african green monkey Vero cells to IC50 for Herpes simplex virus 2 by MTT assay. In kind it is cell-based. The settings on record: read-out: Ratio CC50/IC50.
For a further data set, the system named is HeLa. The data set is described as follows: Cytotoxicity against human HeLa cells after 48 hrs. The format is functional.
The next data set deals with HEp-2. Kind of data set: Cytotoxicity against human Hep2 cells after 48 hrs. The format is functional.
The next data set has as its system CHO. The data set is described as follows: Cytotoxicity against CHO cells after 48 hrs. The format is cell-based, Cricetulus griseus. As to conditions: chinese hamster.
Data set [6] in a line: Cytotoxicity against bovine Bon-Fib cells after 48 hrs. In kind it is cell-based, Bos taurus. The settings on record: cattle.

Consider `CC1(C)CCCC2=C1CC[C@@]13CC[C@](C)(C[C@@]21C)C(=O)C3`, for which the CC100 in the data set with Vero turned out to be 35 µg/mL. Besides, in the data set with Human alphaherpesvirus 2 [1], the Ratio result was “inactive”. In addition, the result with Human alphaherpesvirus 2 [2] was inactive.
The compound `CC1(C)CCC[C@@]2(C)[C@H]1C[C@@H](O)[C@@H]1CC(=O)[C@]3(C)CC[C@]12C3` gave a CC100 with Vero of 60 µg/mL. Besides, the Ratio in the data set on Human alphaherpesvirus 2 [1] stood at 100. Besides, in the data set on Human alphaherpesvirus 2 [2], the Activity came out at 30 µg/mL. Also, the CC50 (usually the concentration giving 50% cytotoxicity) in data set [3] worked out at 27.8 µg/mL (≈ 91.3 µM). Besides, the IC50 – broadly, the point on the concentration scale where inhibition reaches its midpoint – in the data set with Human alphaherpesvirus 2 [4] worked out at 42.1 µg/mL (≈ 138 µM). For the same compound, in data set [5], the selectivity ratio stood at 0.66.
On to `CC1(C)CCC[C@@]2(C)[C@H]1CCC1=CC(=O)[C@]3(C)CC[C@]12C3`, for which the CC100 in the data set on Vero is 40 µg/mL. In addition, in the data set on Human alphaherpesvirus 2 [1], the Ratio worked out at 100. Moreover, in the data set on Human alphaherpesvirus 2 [2], the Activity turned out to be 20 µg/mL. Moreover, the CC50 in [3] is 23.2 µg/mL (≈ 81 µM). Besides, the IC50 with Human alphaherpesvirus 2 [4] was 32.4 µg/mL (≈ 113 µM). Besides, the selectivity ratio in [5] was 0.72.
`COC(=O)CC(=O)O[C@@H]1C[C@@H]2[C@@H](OC(C)=O)C[C@H]3C(C)(C)CCC[C@]3(C)[C@]23CC[C@]1(C)C3` [METHYL THYRSIFLORIN B ACETATE]: the CC100 worked out at 30 µg/mL with Vero; 30 µg/mL in the data set with HeLa; 30 µg/mL in the data set with HEp-2; 30 µg/mL in the data set with CHO; 60 µg/mL in data set [6]. The Ratio in the data set with Human alphaherpesvirus 2 [1] was determined as 5. Besides, in the data set on Human alphaherpesvirus 2 [2], the Activity amounted to 15 µg/mL.
Take `COC(=O)CC(=O)O[C@@H]1C[C@@H]2CC[C@H]3C(C)(C)CCC[C@]3(C)[C@]23CC[C@]1(C)C3` [METHYL THYRSIFLORIN A]: the CC100 in the data set on Vero came to 30 µg/mL; with CHO, 28 µg/mL; in data set [6] it was 28 µg/mL. For the same compound, the Ratio in the data set with Human alphaherpesvirus 2 [1] came to 5. Also, the Activity in the data set with Human alphaherpesvirus 2 [2] was determined as 15 µg/mL.
As for `CC(=O)O[C@H]1C[C@H]2C(C)(C)CCC[C@]2(C)[C@@]23CC[C@](C)(C2)[C@H](OC(C)=O)C[C@H]13` [THYRSIFLORIN C DIACETATE], the CC100 with Vero is 50 µg/mL; in the data set with CHO, 40 µg/mL; in data set [6], 60 µg/mL. Moreover, the Ratio with Human alphaherpesvirus 2 [1] was 5. For the same compound, the Activity in the data set on Human alphaherpesvirus 2 [2] worked out at 10 µg/mL.
Consider `CC1(C)CCC[C@@]2(C)[C@H]1C[C@H](O)[C@H]1C[C@@H](O)[C@]3(C)CC[C@]12C3` [THYRSIFLORIN C], for which the CC100 worked out at 30 µg/mL in the data set on Vero, 45 µg/mL with CHO and 60 µg/mL in data set [6]. Further, the Ratio result with Human alphaherpesvirus 2 [1] was “inactive”. Besides, the result in the data set on Human alphaherpesvirus 2 [2] was inactive.
`CC1(C)CCC[C@@]2(C)[C@H]1C[C@H](O)[C@H]1CC(=O)[C@]3(C)CC[C@]12C3` returned a CC100 in the data set with Vero of 48 µg/mL. In addition, the Ratio with Human alphaherpesvirus 2 [1] was 5. Moreover, in the data set on Human alphaherpesvirus 2 [2], the Activity stood at 10 µg/mL.
The matching figures for `CC1(C)CCC[C@@]2(C)[C@H]1CCC1=CC(=O)[C@@]3(C)C[C@@]12CC3=O`: 60 µg/mL, 10 and 30 µg/mL.
As for `Nc1nc2c(ncn2COCCO)c(=O)[nH]1` [ACYCLOVIR], in the data set with Vero, the CC100 is > 600 µg/mL. The Ratio in the data set on Human alphaherpesvirus 2 [1] came to 100000. For the same compound, the Activity in the data set on Human alphaherpesvirus 2 [2] came out at 6 µg/mL. Besides, in the data set on Human alphaherpesvirus 2 [4], 4.21 µg/mL (≈ 18.7 µM) corresponded to half-maximal inhibition (IC50).
`CC(=O)O[C@H]1C[C@H]2C(C)(C)CCC[C@]2(C)[C@@]23CC[C@](C)(C2)[C@@H](O)C[C@H]13`: the CC100 in the data set with Vero was 50 µg/mL. For the same compound, the Ratio with Human alphaherpesvirus 2 [1] turned out to be 10. Besides, the Activity in the data set with Human alphaherpesvirus 2 [2] turned out to be 25 µg/mL.
Turning to `CC1(C)CCC[C@@]2(C)[C@H]1CC[C@H]1CC(=O)[C@]3(C)CC[C@]12C3`, the CC100 worked out at 28 µg/mL in the data set with Vero, 24 µg/mL with CHO and 24 µg/mL in data set [6]. In the data set on Human alphaherpesvirus 2 [1], the Ratio was 100. The Activity with Human alphaherpesvirus 2 [2] came out at 14 µg/mL. In [3], this compound had a CC50 of 16.7 µg/mL (≈ 57.9 µM). In the data set with Human alphaherpesvirus 2 [4], this compound yielded an IC50 of 21 µg/mL (≈ 72.9 µM). The selectivity ratio in data set [5] was 0.81.
In the data set with Vero, `CC1(C)CCC[C@@]2(C)[C@H]1CC[C@H]1C[C@@H](O)[C@]3(C)CC[C@]12C3` showed a CC100 of 32 µg/mL. Moreover, the Ratio in the data set with Human alphaherpesvirus 2 [1] is recorded as 100. Moreover, the Activity in the data set on Human alphaherpesvirus 2 [2] is 7.5 µg/mL. In data set [3], this compound gave a CC50 of 19.5 µg/mL (≈ 67.1 µM). The same compound gave a half-maximal inhibitory concentration (IC50) with Human alphaherpesvirus 2 [4] of 16.5 µg/mL (≈ 56.8 µM). Also, in data set [5], the selectivity ratio was 1.25.
Consider `CC1(C)CCC[C@@]2(C)[C@H]1C[C@@H](O)C1=CC(=O)[C@]3(C)CC[C@]12C3`, for which the CC100 stood at 28 µg/mL with Vero, 20 µg/mL with CHO and 10 µg/mL in data set [6]. In the data set with Human alphaherpesvirus 2 [1], the Ratio stood at 10. For the same compound, the Activity in the data set with Human alphaherpesvirus 2 [2] was 14 µg/mL.
For `CC1(C)CCC[C@@]2(C)[C@H]1CC[C@@]13CC(=O)[C@]4(C)CC1[C@]32C4`, the CC100 with Vero turned out to be 40 µg/mL. Further, the Ratio with Human alphaherpesvirus 2 [1] is on record as 10. Also, in the data set on Human alphaherpesvirus 2 [2], the Activity turned out to be 20 µg/mL.
